# Reference: patent publication US8404677B2, “Kinase inhibitors” (Genosco, priority 2009, dated 2013)
# Legend:
# SK-OV-3 = assay: cells; format: cell-based; settings: SK-OV-3 (Ovarian Cancer)
# SK-MEL-5 = assay: cells; format: cell-based; settings: SK-MEL-5 (Melanoma)
# NCI-H226 = assay: cells; format: cell-based; settings: NCI-H226 (NSCLC)
# ACHN = assay: cells; format: cell-based; settings: ACHN (Renal Cancer)
# LKB1 = target: T1, LKB1 (Homo sapiens, UniProt Q15831); assay: In vitro kinase inhibition, Ambit Biosciences panel; format: binding; settings: lower numbers indicate stronger activities
# T1 construct: purchased Ambit Biosciences
# Description: (§1) Up to 518 different kinases have been identified in humans. They act on small molecules such as lipids, carbohydrates, amino acids, and nucleotides. To determine the scope of inhibitory effects of a representative compound of Formula (I) on known kinases, Compound 6 was tested against 104 commercially available kinases (Ambit Biosciences™) in vitro. 104 kinases included ABL1(E255K)-phosphorylated, ABL1(T315I)-phosphorylated, ABL1-phosphorylated, ACVR1B, ADCK3, AKT1, AKT2, ALK, AURKA, AURKB, AXL, BMPR2, BRAF, BRAF(V600E), BTK, CDK11, CDK2, CDK3, CDK7, CDK9, CHEK1, CSF1R, CSNK1D, CSNK1G2, DCAMKL1, DYRK1B, EGFR, EGFR(L858R), EPHA2, ERBB2, ERBB4, ERK1, FAK, FGFR2, FGFR3, FLT1, FLT3, FLT4, GSK3B, IGF1R, IKK-α, IKK-β, INSR, JAK2(JH1domain-catalytic), JAK3(JH1domain-catalytic), JNK1, JNK2, JNK3, KIT, KIT(D816V), KIT(V559D,T670I), LKB1, LRRK2, LRRK2(G2019S), MAP3K4, MAPKAPK2, MARK3, MEK1, MEK2, MET, MKNK1, MKNK2, MLK1, MTOR, p38-alpha, p38-beta, PAK1, PAK2, PAK4, PCTK1, PDGFRA, PDGFRB, PDPK1, PIK3C2B, PIK3CA, PIK3CG, PIM1, PIM2, PIM3, PKAC-alpha, PLK1, PLK3, PLK4, PRKCE, PYK2, RAFT, RET, RIOK2, ROCK2, RSK2, SNARK, SRC, SRPK3, SYK, TAK1, TGFBR1, TIE2, TRKA, TSSK1B, TYK2(JH1domain-catalytic), ULK2, VEGFR2, YANK3 and ZAP70.
# (§2) Inhibition activity of Compound 6 was reported as percent control where lower numbers indicate stronger activities. […] Conventionally, the percent control of less than 35 is deemed to be significant inhibition of kinase activity as the numeric value 35 is frequently used as a threshold.
# CSF1R = target: T2, CSF1R (Homo sapiens, UniProt P07333); assay: as above; format: binding; settings: lower numbers indicate stronger activities
# T2 construct: purchased Ambit Biosciences
# Description: as §1, §2
# JNK2 = target: T3, JNK2 (Homo sapiens, UniProt P45984); assay: as above; format: binding; settings: lower numbers indicate stronger activities
# T3 construct: purchased Ambit Biosciences
# Description: as §1, §2
# KIT(D816V) = target: T4, KIT(D816V) (Homo sapiens, UniProt P10721, D816V); assay: as above; format: binding; settings: lower numbers indicate stronger activities
# T4 construct: purchased Ambit Biosciences
# T4 sequence (P10721 26-976 D816V): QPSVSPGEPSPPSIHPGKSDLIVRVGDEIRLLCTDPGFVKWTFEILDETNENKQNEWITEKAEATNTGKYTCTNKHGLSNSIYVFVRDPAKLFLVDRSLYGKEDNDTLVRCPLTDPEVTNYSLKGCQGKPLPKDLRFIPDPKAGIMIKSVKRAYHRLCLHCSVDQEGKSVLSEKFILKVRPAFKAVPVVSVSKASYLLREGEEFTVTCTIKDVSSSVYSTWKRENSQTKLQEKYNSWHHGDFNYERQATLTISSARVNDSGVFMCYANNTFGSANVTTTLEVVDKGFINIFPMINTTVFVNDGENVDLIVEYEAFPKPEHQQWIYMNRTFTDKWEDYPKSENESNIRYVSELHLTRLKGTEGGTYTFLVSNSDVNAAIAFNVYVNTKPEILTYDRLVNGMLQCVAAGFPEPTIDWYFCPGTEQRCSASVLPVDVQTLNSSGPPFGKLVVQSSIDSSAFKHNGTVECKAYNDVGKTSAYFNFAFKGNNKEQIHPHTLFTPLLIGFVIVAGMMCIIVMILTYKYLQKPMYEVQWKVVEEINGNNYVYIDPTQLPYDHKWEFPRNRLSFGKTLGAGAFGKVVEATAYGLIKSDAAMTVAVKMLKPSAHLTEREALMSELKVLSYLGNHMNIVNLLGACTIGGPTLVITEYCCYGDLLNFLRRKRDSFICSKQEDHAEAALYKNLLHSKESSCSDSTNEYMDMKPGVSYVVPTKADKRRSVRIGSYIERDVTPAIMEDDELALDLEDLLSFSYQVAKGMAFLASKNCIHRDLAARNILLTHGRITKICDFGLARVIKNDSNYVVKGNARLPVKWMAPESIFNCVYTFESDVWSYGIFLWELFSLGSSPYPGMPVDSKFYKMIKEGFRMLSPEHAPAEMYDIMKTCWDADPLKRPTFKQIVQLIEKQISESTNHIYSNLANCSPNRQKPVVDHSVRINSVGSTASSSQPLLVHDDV
# Description: as §1, §2
# JNK1 = target: T5, JNK1 (Homo sapiens, UniProt P45983); assay: as above; format: binding; settings: lower numbers indicate stronger activities
# T5 construct: purchased Ambit Biosciences
# Description: as §1, §2
# PLK4 = target: T6, PLK4 (Homo sapiens, UniProt O00444); assay: as above; format: binding; settings: lower numbers indicate stronger activities
# T6 construct: purchased Ambit Biosciences
# Description: as §1, §2
# TAK1 = target: T7, TAK1 (Homo sapiens, UniProt O43318); assay: as above; format: binding; settings: lower numbers indicate stronger activities
# T7 construct: purchased Ambit Biosciences
# T7 sequence (O43318 whole entry): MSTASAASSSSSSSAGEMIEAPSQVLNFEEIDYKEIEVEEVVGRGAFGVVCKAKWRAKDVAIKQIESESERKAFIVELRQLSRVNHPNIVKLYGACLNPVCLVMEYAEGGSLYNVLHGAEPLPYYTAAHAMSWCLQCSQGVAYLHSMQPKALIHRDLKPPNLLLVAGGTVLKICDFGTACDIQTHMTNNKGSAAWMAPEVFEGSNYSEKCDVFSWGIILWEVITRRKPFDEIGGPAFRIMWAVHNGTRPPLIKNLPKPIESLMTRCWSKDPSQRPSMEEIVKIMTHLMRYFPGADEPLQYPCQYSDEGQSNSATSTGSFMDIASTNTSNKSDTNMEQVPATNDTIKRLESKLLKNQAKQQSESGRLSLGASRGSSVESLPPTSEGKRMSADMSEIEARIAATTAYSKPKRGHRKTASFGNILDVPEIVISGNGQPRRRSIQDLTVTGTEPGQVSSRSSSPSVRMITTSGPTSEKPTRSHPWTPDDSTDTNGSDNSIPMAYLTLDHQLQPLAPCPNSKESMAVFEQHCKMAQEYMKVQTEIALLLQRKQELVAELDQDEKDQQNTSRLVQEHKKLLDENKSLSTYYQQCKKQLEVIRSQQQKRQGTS
# Description: as §1, §2
# RSK2 = target: T8, RSK2 (Homo sapiens, UniProt P51812); assay: as above; format: binding; settings: lower numbers indicate stronger activities
# T8 construct: RSK2 (Kin.Dom.1-N-terminal); purchased Ambit Biosciences
# Description: as §1, §2
# AURKA = target: T9, AURKA (Homo sapiens, UniProt O14965); assay: as above; format: binding; settings: lower numbers indicate stronger activities
# T9 construct: purchased Ambit Biosciences
# T9 sequence (O14965 whole entry): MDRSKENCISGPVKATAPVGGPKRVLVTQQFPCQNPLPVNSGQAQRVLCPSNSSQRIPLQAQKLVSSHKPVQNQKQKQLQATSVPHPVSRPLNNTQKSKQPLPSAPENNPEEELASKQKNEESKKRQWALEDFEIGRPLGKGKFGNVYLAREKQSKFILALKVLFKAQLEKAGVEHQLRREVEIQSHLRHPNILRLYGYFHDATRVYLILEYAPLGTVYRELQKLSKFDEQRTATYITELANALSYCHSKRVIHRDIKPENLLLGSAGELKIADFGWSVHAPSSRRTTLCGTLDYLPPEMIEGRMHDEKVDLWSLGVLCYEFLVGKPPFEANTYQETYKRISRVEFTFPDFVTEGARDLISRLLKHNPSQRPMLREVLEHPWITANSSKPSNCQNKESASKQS
# Description: as §1, §2
# JAK2 = target: T10, JAK2 (Homo sapiens, UniProt O60674); assay: as above; format: binding; settings: lower numbers indicate stronger activities
# T10 construct: JAK2(JH1domain-catalytic), JAK3(JH1domain-catalytic); purchased Ambit Biosciences
# T10 sequence (O60674 849-1124 limits assumed): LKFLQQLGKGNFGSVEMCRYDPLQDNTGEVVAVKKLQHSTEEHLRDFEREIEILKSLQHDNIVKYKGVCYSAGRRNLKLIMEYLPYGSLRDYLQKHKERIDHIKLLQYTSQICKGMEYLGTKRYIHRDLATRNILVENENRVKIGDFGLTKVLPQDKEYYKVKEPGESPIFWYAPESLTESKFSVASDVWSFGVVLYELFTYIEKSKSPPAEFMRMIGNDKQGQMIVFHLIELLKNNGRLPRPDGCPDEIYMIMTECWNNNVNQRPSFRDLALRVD
# Description: as §1, §2
# KIT = target: T11, KIT (Homo sapiens, UniProt P10721); assay: as above; format: binding; settings: lower numbers indicate stronger activities
# T11 construct: purchased Ambit Biosciences
# T11 sequence (P10721 26-976): as the sequence (P10721 26-976 D816V) above, with V791D counted along it
# Description: as §1, §2
# SNARK = target: T12, SNARK (Homo sapiens, UniProt Q9H093); assay: as above; format: binding; settings: lower numbers indicate stronger activities
# T12 construct: purchased Ambit Biosciences
# Description: as §1, §2
# AXL = target: T13, AXL (Homo sapiens, UniProt P30530); assay: as above; format: binding; settings: lower numbers indicate stronger activities
# T13 construct: purchased Ambit Biosciences
# T13 sequence (P30530 26-894): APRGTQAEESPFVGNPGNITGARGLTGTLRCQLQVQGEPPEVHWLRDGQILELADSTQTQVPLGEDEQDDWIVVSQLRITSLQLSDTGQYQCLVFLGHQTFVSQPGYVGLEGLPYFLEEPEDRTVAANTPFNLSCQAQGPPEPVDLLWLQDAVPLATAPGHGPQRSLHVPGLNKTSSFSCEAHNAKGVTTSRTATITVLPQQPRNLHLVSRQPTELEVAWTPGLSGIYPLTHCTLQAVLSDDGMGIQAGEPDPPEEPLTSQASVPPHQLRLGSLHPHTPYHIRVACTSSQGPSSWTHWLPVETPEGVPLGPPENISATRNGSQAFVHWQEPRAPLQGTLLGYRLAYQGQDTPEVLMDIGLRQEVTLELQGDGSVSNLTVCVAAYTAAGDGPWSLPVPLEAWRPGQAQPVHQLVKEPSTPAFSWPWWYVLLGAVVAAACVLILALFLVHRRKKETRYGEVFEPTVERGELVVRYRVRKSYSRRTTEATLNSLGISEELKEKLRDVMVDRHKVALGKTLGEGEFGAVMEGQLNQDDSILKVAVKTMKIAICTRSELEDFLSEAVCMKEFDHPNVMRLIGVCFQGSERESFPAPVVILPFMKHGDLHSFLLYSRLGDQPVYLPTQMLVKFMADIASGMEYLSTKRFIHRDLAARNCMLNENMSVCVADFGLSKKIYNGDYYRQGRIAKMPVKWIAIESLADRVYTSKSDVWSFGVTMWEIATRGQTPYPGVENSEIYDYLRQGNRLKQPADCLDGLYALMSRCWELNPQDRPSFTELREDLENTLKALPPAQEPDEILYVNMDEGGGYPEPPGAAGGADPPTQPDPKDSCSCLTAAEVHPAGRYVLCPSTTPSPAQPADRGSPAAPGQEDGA
# Description: as §1, §2
# LRRK2 = target: T14, LRRK2 (Homo sapiens, UniProt Q5S007); assay: as above; format: binding; settings: lower numbers indicate stronger activities
# T14 construct: purchased Ambit Biosciences
# Description: as §1, §2
# JAK3 = target: T15, JAK3 (Homo sapiens, UniProt P52333); assay: as above; format: binding; settings: lower numbers indicate stronger activities
# T15 construct: JAK2(JH1domain-catalytic), JAK3(JH1domain-catalytic); purchased Ambit Biosciences
# Description: as §1, §2
# FLT3 = target: T16, FLT3 (Homo sapiens, UniProt P36888); assay: as above; format: binding; settings: lower numbers indicate stronger activities
# T16 construct: purchased Ambit Biosciences
# Description: as §1, §2
# BMPR2 = target: T17, BMPR2 (Homo sapiens, UniProt Q13873); assay: as above; format: binding; settings: lower numbers indicate stronger activities
# T17 construct: purchased Ambit Biosciences
# Description: as §1, §2
# PDGFRB = target: T18, PDGFRB (Homo sapiens, UniProt P09619); assay: as above; format: binding; settings: lower numbers indicate stronger activities
# T18 construct: purchased Ambit Biosciences
# Description: as §1, §2
# ALK = target: T19, ALK (Homo sapiens, UniProt Q9UM73); assay: as above; format: binding; settings: lower numbers indicate stronger activities
# T19 construct: purchased Ambit Biosciences
# T19 sequence (Q9UM73 19-1620): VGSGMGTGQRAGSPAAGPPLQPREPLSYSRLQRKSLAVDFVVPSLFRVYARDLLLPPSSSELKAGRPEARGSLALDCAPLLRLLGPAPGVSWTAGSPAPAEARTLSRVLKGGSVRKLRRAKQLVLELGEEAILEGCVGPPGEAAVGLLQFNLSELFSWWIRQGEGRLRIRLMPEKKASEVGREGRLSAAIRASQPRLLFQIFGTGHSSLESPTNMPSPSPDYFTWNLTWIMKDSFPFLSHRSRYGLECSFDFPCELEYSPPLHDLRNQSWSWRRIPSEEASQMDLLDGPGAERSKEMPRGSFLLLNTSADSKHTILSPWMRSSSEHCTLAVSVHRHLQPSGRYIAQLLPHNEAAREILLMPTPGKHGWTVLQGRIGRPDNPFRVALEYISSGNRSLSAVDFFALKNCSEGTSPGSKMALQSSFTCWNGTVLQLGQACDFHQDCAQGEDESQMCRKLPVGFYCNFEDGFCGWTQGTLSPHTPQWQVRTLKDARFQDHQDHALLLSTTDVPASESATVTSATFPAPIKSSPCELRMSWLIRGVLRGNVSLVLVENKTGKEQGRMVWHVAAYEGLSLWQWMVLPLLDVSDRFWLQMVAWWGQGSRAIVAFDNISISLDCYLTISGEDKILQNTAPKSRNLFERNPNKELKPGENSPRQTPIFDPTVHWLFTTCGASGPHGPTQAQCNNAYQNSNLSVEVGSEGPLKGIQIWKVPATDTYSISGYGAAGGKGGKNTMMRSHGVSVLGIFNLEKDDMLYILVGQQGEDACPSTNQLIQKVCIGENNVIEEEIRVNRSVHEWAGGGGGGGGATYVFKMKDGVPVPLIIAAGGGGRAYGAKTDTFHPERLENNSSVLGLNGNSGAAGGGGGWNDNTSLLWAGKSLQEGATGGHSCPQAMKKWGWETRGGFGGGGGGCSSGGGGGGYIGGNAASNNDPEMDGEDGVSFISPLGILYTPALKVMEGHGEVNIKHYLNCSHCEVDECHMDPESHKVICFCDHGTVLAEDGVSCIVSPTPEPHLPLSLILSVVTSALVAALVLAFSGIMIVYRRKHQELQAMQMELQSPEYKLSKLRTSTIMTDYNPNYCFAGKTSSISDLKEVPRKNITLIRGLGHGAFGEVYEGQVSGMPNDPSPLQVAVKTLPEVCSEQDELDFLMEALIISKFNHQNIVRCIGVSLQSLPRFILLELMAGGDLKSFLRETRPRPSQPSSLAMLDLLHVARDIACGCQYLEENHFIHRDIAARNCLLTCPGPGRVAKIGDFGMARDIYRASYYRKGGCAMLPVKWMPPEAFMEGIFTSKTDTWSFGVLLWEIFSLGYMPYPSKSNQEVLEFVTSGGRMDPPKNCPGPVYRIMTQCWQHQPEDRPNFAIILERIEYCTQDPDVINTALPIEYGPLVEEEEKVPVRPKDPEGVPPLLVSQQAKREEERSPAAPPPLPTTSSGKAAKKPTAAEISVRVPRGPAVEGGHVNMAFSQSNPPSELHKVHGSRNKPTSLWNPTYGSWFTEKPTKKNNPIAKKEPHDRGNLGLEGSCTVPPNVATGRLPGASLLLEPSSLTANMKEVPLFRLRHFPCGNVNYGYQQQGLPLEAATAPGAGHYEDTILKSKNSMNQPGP
# Description: as §1, §2
# RET = target: T20, RET (Homo sapiens, UniProt P07949); assay: as above; format: binding; settings: lower numbers indicate stronger activities
# T20 construct: purchased Ambit Biosciences
# Description: as §1, §2
# TYK2 = target: T21, TYK2 (Homo sapiens, UniProt P29597); assay: as above; format: binding; settings: lower numbers indicate stronger activities
# T21 construct: TYK2(JH1domain-catalytic); purchased Ambit Biosciences
# T21 sequence (P29597 897-1176 limits assumed): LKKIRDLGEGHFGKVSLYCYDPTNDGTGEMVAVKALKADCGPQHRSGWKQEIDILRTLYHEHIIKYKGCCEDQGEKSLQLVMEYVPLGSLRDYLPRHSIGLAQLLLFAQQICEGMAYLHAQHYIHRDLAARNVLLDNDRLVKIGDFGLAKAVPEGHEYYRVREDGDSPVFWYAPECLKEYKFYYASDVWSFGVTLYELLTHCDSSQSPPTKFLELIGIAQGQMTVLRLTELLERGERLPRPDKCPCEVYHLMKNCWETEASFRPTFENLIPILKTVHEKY
# Description: as §1, §2
# JNK3 = target: T22, JNK3 (Homo sapiens, UniProt P53779); assay: as above; format: binding; settings: lower numbers indicate stronger activities
# T22 construct: purchased Ambit Biosciences
# Description: as §1, §2
# [1] = Homo sapiens, read-out: LC50 (the source's name)
compound,measurement,setting,value
"O=c1[nH]ccc2nc(N3CCC(O)CC3)nc(Nc3cccc(C(F)(F)F)c3)c12 [Compound 6, 2-(4-hydroxypiperidin-1-yl)-4-(3-(trifluoromethyl)phenylamino)pyrido[4,3-d]pyrimidine-5(6H)-one]",GI50,SK-OV-3; Homo sapiens,0.49 µM
same,IC50,SK-OV-3; Homo sapiens,20 µM
same,CC50,SK-OV-3; [1],100 µM
same,TGI,SK-OV-3,100 µM
same,GI50,SK-MEL-5; Homo sapiens,1.23 µM
same,IC50,SK-MEL-5; Homo sapiens,2.14 µM
same,CC50,SK-MEL-5; [1],5.13 µM
same,TGI,SK-MEL-5,2.51 µM
same,GI50,NCI-H226; Homo sapiens,3.24 µM
same,IC50,NCI-H226; Homo sapiens,8.32 µM
same,CC50,NCI-H226; [1],100 µM
same,TGI,NCI-H226,17.8 µM
same,TGI,ACHN,85.1 µM
same,GI50,ACHN; Homo sapiens,0.708 µM
same,IC50,ACHN; Homo sapiens,2.24 µM
same,CC50,ACHN; [1],100 µM
same,% inhibition (reported as percent control),LKB1,18%
same,% inhibition (reported as percent control),CSF1R,5.2%
same,% inhibition (reported as percent control),JNK2,25%
same,% inhibition (reported as percent control),KIT(D816V),9.3%
same,% inhibition (reported as percent control),JNK1,4.8%
same,% inhibition (reported as percent control),PLK4,13%
same,% inhibition (reported as percent control),TAK1,1%
same,% inhibition (reported as percent control),RSK2,18%
same,% inhibition (reported as percent control),AURKA,31%
same,% inhibition (reported as percent control),JAK2,3%
same,% inhibition (reported as percent control),KIT,11%
same,% inhibition (reported as percent control),SNARK,3.6%
same,% inhibition (reported as percent control),AXL,11%
same,% inhibition (reported as percent control),LRRK2,2.2%
same,% inhibition (reported as percent control),JAK3,4.4%
same,% inhibition (reported as percent control),FLT3,28%
same,% inhibition (reported as percent control),BMPR2,0%
same,% inhibition (reported as percent control),PDGFRB,19%
same,Percent of control (lower = stronger binding),ALK,29%
same,% inhibition (reported as percent control),RET,16%
same,% inhibition (reported as percent control),TYK2,16%
same,% inhibition (reported as percent control),JNK3,7%
